In the RepoRT retention time repository (doi:10.1093/pcp/pcn183) one finds LC retention time data, which are given here for 76 molecules.

Where a name gives a salt, the structure may show the parent alone.

This data set can be described thus: RP, Waters ACQUITY UPLC BEH C18, 38 °C, 0.24 mL/min; A: water + 0.1% formic acid, pH 3; B: acetonitrile + 0.1% formic acid, pH 3; gradient (min/%B) 0/0 0.25/0 0.4/9 0.8/17 1.9/100 2.1/100 2.11/0 3/0. The following applies: stereoisomer not certain.
In the case of `OCC(O)C(O)C(O)CO` (stereo unspecified), the LC retention time was determined as 0.17 min. With `OCC1OC(OC2C(CO)OC(O)(CO)C2O)C(O)C(O)C1O` (stereo unspecified), the LC retention time worked out at 0.19 min. Consider `OCC1OC(OCC2OC(O)C(O)C(O)C2O)C(O)C(O)C1O` (stereo unspecified), for which the LC retention time was determined as 0.19 min. Then `O=P(O)(O)OC1C(O)C(O)C(OP(=O)(O)O)C(O)C1O` (stereo unspecified), with 2.13 min. As to `OCC1OC(OC2C(Oc3cc4c(O)cc(O)cc4[o+]c3-c3ccc(O)c(O)c3)OC(CO)C(O)C2O)C(O)C(O)C1O` (stereo unspecified), the LC retention time is 1.16 min.

With `NC(=O)c1ncn(C2OC(COP(=O)(O)O)C(O)C2O)c1N` (stereo unspecified), the LC retention time came out at 0.32 min. Then `O=c1[nH]c(=O)c2ncn(C3OC(COP(=O)(O)O)C(O)C3O)c2[nH]1` (stereo unspecified), with 0.48 min; and `OCC1OC(OC2C(O)C(O)COC2(O)CO)C(O)C(O)C1O` (stereo unspecified), with 0.18 min; and `OCC1OC(Oc2cc(O)cc3[o+]c(-c4ccc(O)c(O)c4)c(OC4OC(CO)C(O)C(O)C4OC4OCC(O)C(O)C4O)cc23)C(O)C(O)C1O` (stereo unspecified), with 1.12 min. For `Cc1cc2nc3c(=O)[nH]c(=O)nc-3n(CC(O)C(O)C(O)COP(=O)(O)O)c2cc1C` (stereo unspecified) the value was 1.19 min; for `CC1OC(O)C(O)C(O)C1O` (stereo unspecified), 0.21 min; for `COc1cc(-c2[o+]c3cc(O)cc(OC4OC(CO)C(O)C(O)C4O)c3cc2OC2OC(COC3OC(C)C(OC(=O)C=Cc4ccc(O)cc4)C(O)C3O)C(O)C(O)C2O)cc(O)c1O` (stereo unspecified), 1.36 min. For the molecule `CC1OC(OCC2OC(Oc3cc4c(O)cc(O)cc4[o+]c3-c3cc(O)c(O)c(O)c3)C(O)C(O)C2O)C(O)C(O)C1O` (stereo unspecified), the LC retention time is 1.15 min. For `CS(=O)C=CCCN=C=S` (stereo unspecified) the value was 1.44 min.

As to `C[N+](C)(C)CCOP(=O)(O)OP(=O)([O-])OCC1OC(n2ccc(N)nc2=O)C(O)C1O` (stereo unspecified), the LC retention time amounted to 0.2 min. In the case of `CC(=O)OCC=C(C)CCC=C(C)CCC=C(C)C` (mixture of isomers) [(cis,trans)-Farnesyl acetate], the LC retention time stood at 2 min. For the molecule `CCC(C)C(=O)C(=O)O` (racemic) [(+-)-3-Methyl-2-oxovaleric acid sodium salt], the LC retention time amounted to 1.21 min. For `NCC(CC(=O)O)c1ccc(Cl)cc1` (racemic) [(+-)-Baclofen], the LC retention time was 1.24 min. With `CCC=CCC1C(=O)CCC1CC(=O)O` (racemic) [(+-)-Jasmonic acid], the LC retention time stood at 1.68 min. In the case of `O=C1c2c(O)cc(O)cc2OC(c2ccc(O)c(O)c2)C1O` (racemic) [(+-)-Taxifolin], the LC retention time came to 1.45 min. For `O=C(O)CCCCC1CCSS1` (racemic) [(+-)-alpha-Lipoic acid] the value was 1.74 min; for `CN1CCCC1c1cccnc1` (racemic) [(-)-Nicotine ( solution 1.0 mg/mL+/-5% in methanol)], 0.47 min. Then `NC(=O)NC(CC(=O)O)C(=O)O` (racemic) [Carbamoyl-DL-aspartic Acid], with 0.12 min; and `CS(=O)CCCCN=C=S` (racemic) [D,L-sulforaphane], with 1.44 min; and `NCC(N)C(=O)O` (racemic) [DL-2,3-Diaminopropionic acid monohydrochloride], with 0.15 min. Then `CCCC(O)C(=O)O` (racemic) [DL-2-Hydroxyvaleric acid sodium salt hydrate], with 1.14 min; and `CC(CN)C(=O)O` (racemic) [DL-3-Aminoisobutyric acid], with 0.19 min; and `O=C(O)C(O)Cc1ccccc1` (racemic) [DL-3-Phenyllactic acid], with 1.42 min. As to `NCC(O)CCC(N)C(=O)O` (racemic) [DL-5-Hydroxylysine  hydrochloride], the LC retention time was determined as 0.14 min. For `CC(CO)CCNc1ncnc2nc[nH]c12` (racemic) [DL-Dihydrozeatin] the value was 1.11 min; for `O=CC(O)CO` (racemic) [DL-Glyceraldehyde], 0.17 min. For `O=C(O)CC(C(=O)O)C(O)C(=O)O` (racemic) [DL-Isocitric acid trisodium salt] the value was 0.24 min; for `O=C(O)C1CCCCN1` (racemic) [DL-Pipecolinic acid], 0.27 min. For `NC(=O)CCCCC1CCSS1` (racemic) [DL-Thioctamide] the value was 1.57 min.

Take `OC[C@@H](O)[C@H](O)CO` (racemic) [DL-Threitol]: the LC retention time was 0.17 min. Take `NC(CCCC(N)C(=O)O)C(=O)O` (racemic) [DL-alpha,epsilon-Diaminopimelic acid]: the LC retention time turned out to be 0.15 min. As to `CC(N)CC(=O)O` (racemic) [DL-beta-Aminobutyric acid], the LC retention time amounted to 0.18 min.

Take `N[C@@H](CCSSCC[C@H](N)C(=O)O)C(=O)O` (racemic) [DL-homocystine]: the LC retention time came out at 0.23 min. As to `O=C(O)C(O)Cc1ccc(O)cc1` (racemic) [DL-p-Hydroxyphenyllactic acid], the LC retention time was 1.18 min. For the molecule `CC(=O)NC(CC(=O)O)C(=O)O` (racemic) [N-Acetyl-DL-aspartic acid], the LC retention time was 0.31 min. Then `CNC(C)C(=O)O` (racemic) [N-Methyl-DL-Alanine], with 0.18 min. As for `CC(=O)NC(CO)C(=O)O` (racemic) [N-acetyl-DL-serine], the LC retention time is 0.24 min. For `CC(N)(Cc1cnc[nH]1)C(=O)O` (racemic) [alpha-Methyl-DL-histidine dihydrochloride] the value was 0.16 min; for `CC(N)(CO)C(=O)O` (racemic) [alpha-Methyl-DL-serine], 0.17 min. For `O=P(O)(O)OCC(O)CO` (racemic) [rac-Glycerol 3-phosphoate disodium salt hexahydrate] the value was 0.16 min; for `CC(O)(CC(=O)O)C(=O)O` (single isomer, unassigned; (-)) [(-)-Citramalic acid], 0.51 min; for `NCC(O)c1ccc(O)c(O)c1` (single isomer, unassigned; (-)) [(-)-Norepinephrine], 0.19 min.

Take `CN(C)C(=N)N=C(N)N` [1,1-Dimethylbiguanide hydrochloride]: the LC retention time turned out to be 0.21 min.

As to `NCCCCN` [1,4-Diaminobutane], the LC retention time was 0.14 min. For `Cn1c(=O)[nH]c2ncn(C)c2c1=O` [1,7-Dimethylxanthine] the value was 1.15 min; for `c1cnc2c(c1)ccc1cccnc12` [1,10-Phenanthroline monohydrate], 1.18 min; for `NC1(C(=O)O)CCCC1` [1-Amino-1-cyclopentanecarboxylic acid], 0.32 min. As for `NC1(C(=O)O)CC1` [1-Aminocyclopropane-1-carboxylic acid], the LC retention time stood at 0.18 min. Turning to `C[n+]1cccc(C(N)=O)c1` [1-Methylnicotinamide chloride], the LC retention time was determined as 0.18 min. Then `Nc1ncnc2c1ncn2C1CC(O)C(CO)O1` (stereo unspecified) [2'-Deoxyadenosine monohydrate], with 1.07 min; and `Nc1ncnc2c1ncn2C1CC(O)C(COP(=O)(O)O)O1` (stereo unspecified) [2'-Deoxyadenosine-5'-monophosphate], with 0.62 min; and `Nc1ccn(C2CC(O)C(CO)O2)c(=O)n1` (stereo unspecified) [2'-Deoxycytidine], with 0.45 min. On to `O=c1[nH]cnc2c1ncn2C1CC(O)C(COP(=O)(O)O)O1` (stereo unspecified) [2'-Deoxyinosine-5'-monophosphate sodium salt], for which the LC retention time stood at 0.7 min.

Take `O=c1ccn(C2CC(O)C(COP(=O)(O)O)O2)c(=O)[nH]1` (stereo unspecified) [2'-Deoxyuridine-5'-monophosphate disodium salt]: the LC retention time came to 0.4 min.

As to `Nc1nc2c(ncn2C2CC(O)C(COP(=O)(O)O)O2)c(=O)[nH]1` (stereo unspecified) [2'-deoxyguanosine 5'-monophosphate sodium salt hydrate], the LC retention time was 0.72 min.

With `OCCN(CCO)CCO` [2,2',2''-Nitrilotriethanol], the LC retention time was determined as 0.17 min. For `O=C(O)c1cc(O)ccc1O` [2,5-dihydroxy benzoic acid], the LC retention time came out at 1.25 min.

For `O=P(O)(O)OCC1OC(O)CC1O` (stereo unspecified) [2-Deoxyribose-5-phosphate sodium salt], the LC retention time was determined as 0.18 min. As for `O=C(O)c1ccco1` [2-Furoic acid], the LC retention time worked out at 1.15 min. For the molecule `O=C(O)C=Cc1ccccc1O` [2-Hydroxycinnamic acid, predominantly trans], the LC retention time came to 1.51 min.

For the molecule `CC(C)CC(O)C(=O)O` (stereo unspecified) [2-Hydroxyisocaproic acid], the LC retention time was 1.34 min.

With `O=C(O)Cc1ccccc1O` [2-Hydroxyphenylacetic acid], the LC retention time is 1.38 min. Turning to `O=c1cccc[nH]1` [2-Hydroxypyridine], the LC retention time turned out to be 0.68 min. Then `CC(C)C(O)(CC(=O)O)C(=O)O` (stereo unspecified) [2-Isopropylmalic acid], with 1.21 min; and `COc1ccccc1C=CC(=O)O` [2-Methoxycinnamic acid], with 1.68 min; and `CC(CCC(=O)O)C(=O)O` (stereo unspecified) [2-Methylglutaric Acid], with 1.16 min. For `CC(C)[N+](=O)[O-]` [2-nitropropane] the value was 0.3 min.

As for `CC(C)(COP(=O)(O)OP(=O)(O)OCC1OC(n2cnc3c(N)ncnc32)C(O)C1O)C(O)C(=O)NCCC(=O)NCCS` (stereo unspecified) [3'-Dephosphocoenzyme A], the LC retention time came to 1.12 min. For `N[C@@H](Cc1ccc(O)c(O)c1)C(=O)O` [3,4-Dihydroxy-L-phenylalanine] the value was 0.4 min.

For the molecule `O=C(O)c1ccc(O)c(O)c1` [3,4-Dihydroxybenzoic acid], the LC retention time amounted to 1.14 min. Then `O=C(O)Cc1ccc(O)c(O)c1` [3,4-dihydroxyphenylacetic acid], with 1.16 min.
